# Assay: drug loading capacity (ratio of amount API:(API+excipient))
# Type: physicochemical
# Experimental: The solution was evaporated to dryness in a rotary evaporator. Final drying was performed in a desiccator to remove residual solvent. Hydration of the dried film was performed by adding water for injection (1.2 mL). […] Drug loading capacity is defined as the ratio of amount API:(API+excipient).
# 20 mg of example 1 was dispensed into a 25 mL round bottom flask and dissolved in methanol (3 mL). 800 μL of a stock solution of docetaxel in methanol (5 mg/mL) was added. The solution was evaporated to dryness in a rotary evaporator. Final drying was performed in a desiccator to remove residual solvent. Hydration of the dried film was performed by adding water for injection (1.0 mL) to a concentration of 4 mg/mL of docetaxel. The 4 mg/mL concentration was further diluted with 0.9% sodium chloride according to the table below.
# (§1) 11 mg of example 1 was dispensed into a 25 mL round bottom flask and dissolved in methanol (2 mL). 740 μL of a stock solution of docetaxel in methanol (4.96 mg/mL) was added. The solution was evaporated to dryness in a rotary evaporator. Final drying was performed in a desiccator to remove residual solvent.
# as §1, with “4.5” for “11”, “compound” for “example”, “1500” for “740”, “cabazitaxel” for “docetaxel”, “(1.00” for “(4.96”
# as §1, with “4.5” for “11”, “compound” for “example”, “1500” for “740”, “cyclosporin” for “docetaxel”, “(1.00” for “(4.96”
# 4.0 mg of compound 2 was dispensed into a 25 mL round bottom flask and dissolved in methanol (3 mL). 250 μL of a stock solution of docetaxel in methanol (5 mg/mL) was added. The solution was evaporated to dryness in a rotary evaporator. Final drying was performed in a desiccator to remove residual solvent. Hydration of the dried film was performed by adding water for injection (1.25 mL). […]
# as §1, with “4.5” for “11”, “compound 3” for “example 1”, “(3” for “(2”, “305” for “740”
# as §1, with “4.5” for “11”, “compound 3” for “example 1”, “(3” for “(2”, “[…]” for “740”
# [1] = docetaxel, ratio 3:1, docetaxel conc. 1 mg/mL
Structure (SMILES),"Drug loading capacity (cabazitaxel, ratio 3:1, cabazitaxel conc. 0.25 mg/mL)","Drug loading capacity (cabazitaxel, ratio 3:1, cabazitaxel conc. 0.5 mg/mL)","Drug loading capacity (cabazitaxel, ratio 3:1, cabazitaxel conc. 1 mg/mL)","Drug loading capacity (cyclosporin, ratio 3:1, cyclosporin conc. 0.25 mg/mL)","Drug loading capacity (cyclosporin, ratio 3:1, cyclosporin conc. 0.5 mg/mL)","Drug loading capacity (cyclosporin, ratio 3:1, cyclosporin conc. 1 mg/mL)",Drug loading capacity (docetaxel 1.2 mg + compound 3.8 mg),Drug loading capacity [1],"Drug loading capacity (docetaxel, ratio 5:1, docetaxel conc. 1 mg/mL)","Drug loading capacity (docetaxel, ratio 2:1, docetaxel conc. 0.25 mg/mL)","Drug loading capacity (docetaxel, ratio 2:1, docetaxel conc. 0.5 mg/mL)","Drug loading capacity (docetaxel, ratio 2:1, docetaxel conc. 1 mg/mL)","Drug loading capacity (docetaxel, ratio 3:1, docetaxel conc. 0.25 mg/mL)","Drug loading capacity (docetaxel, ratio 3:1, docetaxel conc. 0.5 mg/mL)"
COc1cc(C)c(/C=C/C(C)=C/C=C/C(C)=C/C(=O)N(CCS(=O)(=O)[O-])C2CCCCC2)c(C)c1C.[Na+] [Compound 1],25%,25%,25%,25%,25%,25%,24%,25%,17%,,,,,
COc1cc(C)c(/C=C/C(C)=C/C=C/C(C)=C/C(=O)N(C)CCS(=O)(=O)[O-])c(C)c1C.[Na+] [Compound 3],,,,,,,,25%,,25%,25%,25%,25%,25%
